# What was measured:
# Assay in all cases: relative viability (nuclei count vs DMSO), 5 days (fraction); higher = more cells survive
# VX-11e + Pictilisib = compound: CC1=CN=C(N=C1C2=CNC(=C2)C(=O)N[C@H](CO)C3=CC(=CC=C3)Cl)NC4=C(C=C(C=C4)F)Cl [VX-11e] + CS(=O)(=O)N1CCN(Cc2cc3nc(-c4cccc5[nH]ncc45)nc(N4CCOCC4)c3s2)CC1 [Pictilisib] (partner 1 µM)
# In short: (§1)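 Lung cancer cell lines were seeded in 1536-well plates and dosed by pin tool the next day, with either a single drug or a fixed anchor-drug dose combined with five library-drug doses (not always all listed) spaced in √10 steps. Five days later, one step fixed the cells and stained their nuclei (final 0.05% Triton X-100, 1% formaldehyde, 1 ug/ml Hoechst), and nuclei were counted on 4× images. Relative viability is the nuclei count in treated wells divided by the count in vehicle wells, and each value is the median of duplicate plates.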
# VX-11e + Navitoclax = compound: CC1=CN=C(N=C1C2=CNC(=C2)C(=O)N[C@H](CO)C3=CC(=CC=C3)Cl)NC4=C(C=C(C=C4)F)Cl [VX-11e] + CC1(C)CCC(c2ccc(Cl)cc2)=C(CN2CCN(c3ccc(C(=O)NS(=O)(=O)c4ccc(N[C@H](CCN5CCOCC5)CSc5ccccc5)c(S(=O)(=O)C(F)(F)F)c4)cc3)CC2)C1 [Navitoclax] (partner 0.5 µM)
# In short: as §1
# VX-11e + Bortezomib = compound: CC1=CN=C(N=C1C2=CNC(=C2)C(=O)N[C@H](CO)C3=CC(=CC=C3)Cl)NC4=C(C=C(C=C4)F)Cl [VX-11e] + CC(C)C[C@H](NC(=O)[C@H](Cc1ccccc1)NC(=O)c1cnccn1)B(O)O [Bortezomib] (partner 0.002 µM)
# In short: as §1
# VX-11e + Linsitinib = compound: CC1=CN=C(N=C1C2=CNC(=C2)C(=O)N[C@H](CO)C3=CC(=CC=C3)Cl)NC4=C(C=C(C=C4)F)Cl [VX-11e] + C[C@]1(O)C[C@@H](c2nc(-c3ccc4ccc(-c5ccccc5)nc4c3)c3c(N)nccn32)C1 [Linsitinib] (partner 1 µM)
# In short: as §1
# VX-11e + Olaparib = compound: CC1=CN=C(N=C1C2=CNC(=C2)C(=O)N[C@H](CO)C3=CC(=CC=C3)Cl)NC4=C(C=C(C=C4)F)Cl [VX-11e] + O=C(c1cc(Cc2n[nH]c(=O)c3ccccc23)ccc1F)N1CCN(C(=O)C2CC2)CC1 [Olaparib] (partner 8 µM)
# In short: as §1
# VX-11e + Crizotinib = compound: CC1=CN=C(N=C1C2=CNC(=C2)C(=O)N[C@H](CO)C3=CC(=CC=C3)Cl)NC4=C(C=C(C=C4)F)Cl [VX-11e] + C[C@@H](Oc1cc(-c2cnn(C3CCNCC3)c2)cnc1N)c1c(Cl)ccc(F)c1Cl [Crizotinib] (partner 1 µM)
# In short: as §1
# VX-11e + Foretinib = compound: CC1=CN=C(N=C1C2=CNC(=C2)C(=O)N[C@H](CO)C3=CC(=CC=C3)Cl)NC4=C(C=C(C=C4)F)Cl [VX-11e] + COc1cc2c(Oc3ccc(NC(=O)C4(C(=O)Nc5ccc(F)cc5)CC4)cc3F)ccnc2cc1OCCCN1CCOCC1 [Foretinib] (partner 0.25 µM)
# In short: as §1
# VX-11e + Alpelisib = compound: CC1=CN=C(N=C1C2=CNC(=C2)C(=O)N[C@H](CO)C3=CC(=CC=C3)Cl)NC4=C(C=C(C=C4)F)Cl [VX-11e] + Cc1nc(NC(=O)N2CCC[C@H]2C(N)=O)sc1-c1ccnc(C(C)(C)C(F)(F)F)c1 [Alpelisib] (partner 2 µM)
# In short: as §1
# VX-11e + Lapatinib = compound: CC1=CN=C(N=C1C2=CNC(=C2)C(=O)N[C@H](CO)C3=CC(=CC=C3)Cl)NC4=C(C=C(C=C4)F)Cl [VX-11e] + CS(=O)(=O)CCNCc1ccc(-c2ccc3ncnc(Nc4ccc(OCc5cccc(F)c5)c(Cl)c4)c3c2)o1 [Lapatinib] (partner 2 µM)
# In short: as §1
# VX-11e = compound: CC1=CN=C(N=C1C2=CNC(=C2)C(=O)N[C@H](CO)C3=CC(=CC=C3)Cl)NC4=C(C=C(C=C4)F)Cl [VX-11e]
# In short: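 Following overnight incubation at 37 °C, lung cancer cell lines in 1536-well plates were pinned with five library-drug doses (not always all listed) in √10 steps on vehicle-anchored plates. The cells then spent 5 days without medium change before a combined fix, permeabilisation and Hoechst stain, 4× imaging and MetaXpress nuclear counts. Viability is the treated-to-vehicle ratio of nuclei, taken as the median across plates. Only plates with control CV below 25% and at least one doubling passed.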
# VX-11e + Phenformin = compound: CC1=CN=C(N=C1C2=CNC(=C2)C(=O)N[C@H](CO)C3=CC(=CC=C3)Cl)NC4=C(C=C(C=C4)F)Cl [VX-11e] + N=C(N)NC(=N)NCCc1ccccc1 [Phenformin] (partner 250 µM)
# In short: as §1
# VX-11e + Dasatinib = compound: CC1=CN=C(N=C1C2=CNC(=C2)C(=O)N[C@H](CO)C3=CC(=CC=C3)Cl)NC4=C(C=C(C=C4)F)Cl [VX-11e] + Cc1nc(Nc2ncc(C(=O)Nc3c(C)cccc3Cl)s2)cc(N2CCN(CCO)CC2)n1 [Dasatinib] (partner 0.075 µM)
# In short: as §1
# VX-11e + Tozasertib = compound: CC1=CN=C(N=C1C2=CNC(=C2)C(=O)N[C@H](CO)C3=CC(=CC=C3)Cl)NC4=C(C=C(C=C4)F)Cl [VX-11e] + Cc1cc(Nc2cc(N3CCN(C)CC3)nc(Sc3ccc(NC(=O)C4CC4)cc3)n2)n[nH]1 [Tozasertib] (partner 0.1 µM)
# In short: as §1
# VX-11e + OSI-027 = compound: CC1=CN=C(N=C1C2=CNC(=C2)C(=O)N[C@H](CO)C3=CC(=CC=C3)Cl)NC4=C(C=C(C=C4)F)Cl [VX-11e] + COc1cccc2cc(-c3nc([C@H]4CC[C@H](C(=O)O)CC4)n4ncnc(N)c34)[nH]c12 [OSI-027] (partner 0.5 µM)
# In short: as §1
# VX-11e + Luminespib = compound: CC1=CN=C(N=C1C2=CNC(=C2)C(=O)N[C@H](CO)C3=CC(=CC=C3)Cl)NC4=C(C=C(C=C4)F)Cl [VX-11e] + CCNC(=O)c1noc(-c2cc(C(C)C)c(O)cc2O)c1-c1ccc(CN2CCOCC2)cc1 [Luminespib] (partner 0.01 µM)
# In short: as §1
cell line,measurement,setting,value
EBC-1,relative viability,VX-11e + Pictilisib; first compound 0.04 µM,0.494
same,relative viability,VX-11e + Pictilisib; first compound 0.1265 µM,0.436
same,relative viability,VX-11e + Pictilisib; first compound 0.4 µM,0.378
same,relative viability,VX-11e + Pictilisib; first compound 1.265 µM,0.201
same,relative viability,VX-11e + Pictilisib; first compound 4 µM,0.162
same,relative viability,VX-11e + Navitoclax; first compound 0.04 µM,0.362
same,relative viability,VX-11e + Navitoclax; first compound 0.1265 µM,0.474
same,relative viability,VX-11e + Navitoclax; first compound 0.4 µM,0.325
same,relative viability,VX-11e + Navitoclax; first compound 1.265 µM,0.271
same,relative viability,VX-11e + Navitoclax; first compound 4 µM,0.168
same,relative viability,VX-11e + Bortezomib; first compound 0.04 µM,0.512
same,relative viability,VX-11e + Bortezomib; first compound 0.1265 µM,0.528
same,relative viability,VX-11e + Bortezomib; first compound 0.4 µM,0.599
same,relative viability,VX-11e + Bortezomib; first compound 1.265 µM,0.576
same,relative viability,VX-11e + Bortezomib; first compound 4 µM,0.239
same,relative viability,VX-11e + Linsitinib; first compound 0.04 µM,0.954
same,relative viability,VX-11e + Linsitinib; first compound 0.1265 µM,0.872
same,relative viability,VX-11e + Linsitinib; first compound 0.4 µM,0.494
same,relative viability,VX-11e + Linsitinib; first compound 1.265 µM,0.371
same,relative viability,VX-11e + Linsitinib; first compound 4 µM,0.19
same,relative viability,VX-11e + Olaparib; first compound 0.04 µM,0.749
same,relative viability,VX-11e + Olaparib; first compound 0.1265 µM,0.72
same,relative viability,VX-11e + Olaparib; first compound 0.4 µM,0.707
same,relative viability,VX-11e + Olaparib; first compound 1.265 µM,0.66
same,relative viability,VX-11e + Olaparib; first compound 4 µM,0.192
same,relative viability,VX-11e + Crizotinib; first compound 0.04 µM,0.204
same,relative viability,VX-11e + Crizotinib; first compound 0.1265 µM,0.182
same,relative viability,VX-11e + Crizotinib; first compound 0.4 µM,0.163
same,relative viability,VX-11e + Crizotinib; first compound 1.265 µM,0.198
same,relative viability,VX-11e + Crizotinib; first compound 4 µM,0.18
same,relative viability,VX-11e + Foretinib; first compound 0.04 µM,0.104
same,relative viability,VX-11e + Foretinib; first compound 0.1265 µM,0.107
same,relative viability,VX-11e + Foretinib; first compound 0.4 µM,0.0992
same,relative viability,VX-11e + Foretinib; first compound 1.265 µM,0.111
same,relative viability,VX-11e + Foretinib; first compound 4 µM,0.109
same,relative viability,VX-11e + Alpelisib; first compound 0.04 µM,0.816
same,relative viability,VX-11e + Alpelisib; first compound 0.1265 µM,0.766
same,relative viability,VX-11e + Alpelisib; first compound 0.4 µM,0.632
same,relative viability,VX-11e + Alpelisib; first compound 1.265 µM,0.693
same,relative viability,VX-11e + Alpelisib; first compound 4 µM,0.23
same,relative viability,VX-11e + Lapatinib; first compound 0.04 µM,0.207
same,relative viability,VX-11e + Lapatinib; first compound 0.1265 µM,0.236
same,relative viability,VX-11e + Lapatinib; first compound 0.4 µM,0.19
same,relative viability,VX-11e + Lapatinib; first compound 1.265 µM,0.235
same,relative viability,VX-11e + Lapatinib; first compound 4 µM,0.177
same,relative viability,VX-11e; 0.04 µM,1.06
same,relative viability,VX-11e; 0.1265 µM,1.01
same,relative viability,VX-11e; 0.4 µM,0.765
same,relative viability,VX-11e; 1.265 µM,0.77
same,relative viability,VX-11e; 4 µM,0.221
NCI-H1623,relative viability,VX-11e + Phenformin; first compound 0.04 µM,0.53
same,relative viability,VX-11e + Phenformin; first compound 0.1265 µM,0.623
same,relative viability,VX-11e + Phenformin; first compound 0.4 µM,0.433
same,relative viability,VX-11e + Phenformin; first compound 1.265 µM,0.546
same,relative viability,VX-11e + Phenformin; first compound 4 µM,0.409
same,relative viability,VX-11e + Dasatinib; first compound 0.04 µM,0.526
same,relative viability,VX-11e + Dasatinib; first compound 0.1265 µM,0.624
same,relative viability,VX-11e + Dasatinib; first compound 0.4 µM,0.369
same,relative viability,VX-11e + Dasatinib; first compound 1.265 µM,0.457
same,relative viability,VX-11e + Dasatinib; first compound 4 µM,0.398
same,relative viability,VX-11e + Tozasertib; first compound 0.04 µM,0.396
same,relative viability,VX-11e + Tozasertib; first compound 0.1265 µM,0.426
same,relative viability,VX-11e + Tozasertib; first compound 0.4 µM,0.418
same,relative viability,VX-11e + Tozasertib; first compound 1.265 µM,0.38
same,relative viability,VX-11e + Tozasertib; first compound 4 µM,0.23
same,relative viability,VX-11e + Foretinib; first compound 0.04 µM,0.856
same,relative viability,VX-11e + Foretinib; first compound 0.1265 µM,0.934
same,relative viability,VX-11e + Foretinib; first compound 0.4 µM,0.588
same,relative viability,VX-11e + Foretinib; first compound 1.265 µM,0.619
same,relative viability,VX-11e + Foretinib; first compound 4 µM,0.473
same,relative viability,VX-11e + OSI-027; first compound 0.04 µM,0.43
same,relative viability,VX-11e + OSI-027; first compound 0.1265 µM,0.446
same,relative viability,VX-11e + OSI-027; first compound 0.4 µM,0.423
same,relative viability,VX-11e + OSI-027; first compound 1.265 µM,0.307
same,relative viability,VX-11e + OSI-027; first compound 4 µM,0.278
same,relative viability,VX-11e + Luminespib; first compound 0.04 µM,0.434
same,relative viability,VX-11e + Luminespib; first compound 0.1265 µM,0.492
same,relative viability,VX-11e + Luminespib; first compound 0.4 µM,0.3
same,relative viability,VX-11e + Luminespib; first compound 1.265 µM,0.48
same,relative viability,VX-11e + Luminespib; first compound 4 µM,0.337
same,relative viability,VX-11e; 0.04 µM,0.967
same,relative viability,VX-11e; 0.1265 µM,1.04
same,relative viability,VX-11e; 0.4 µM,0.724
same,relative viability,VX-11e; 1.265 µM,0.678
same,relative viability,VX-11e; 4 µM,0.561

# From the supplement of paper PMC10307832
